A short description of data set [1]: Free radical scavenging: inhibition of autoxidation of 1-epinephrine (Misra and Fridovich assay). The format is biochemical. The settings on record: 1-epinephrine 1 x 10⁻⁴M, EDTA 1 x 10⁻⁴M, 30°C, absorbance at 480 nm; read-out: 50% inhibition of the autoxidation rate (ID₅₀). Here is the method: 2-(3,4-dihydro-6-hydroxy-2,5,7,8-tetramethyl-2H-1-benzopyran-2-yl)ethyl-N,N,N-trimethylammonium bromide, described in Example 1, was evaluated for its ability to reduce superoxide radicals in an assay described by H.P. Misra and J. Fridovich, 1972, J. Biol. Chem. 247, 3170-5. In this assay, the rate of autoxidation of 1-epinephrine (1 x 10⁻⁴M) in the presence of EDTA (1 x 10⁻⁴M) at 30°C is followed spectrophotometrically following the increase of absorbance at 480 mn. […] For comparison, 3,4-dihydro-6-hydroxy-2,5,7,8-tetramethyl-2H-1-benzopyran -2-carboxylic acid (CAS 53188-07-1) gave ID₅₀ = 105 ± 8 µM and d,1-penicillamine (CAS 52-67-5) ID₅₀ = 73 µM in parallel experiments. Misra and Fridovich report that bovine superoxide dismutase gave 50% inhibition at […].

The subject of data set [2] is ligation-induced infarcted and reperfused rats. Put plainly: Cardioprotective effects: coronary ligation 60 min and reperfusion 30 min, infarcted area versus area at risk. The format is in vivo. Here is the method: 2-(3,4-Dihydro-2,5,7,8-tetramethyl-6-methyl-carbonyloxy-2H-1-benzopyran-2-yl) ethyl-N,N,N-trimethyl-ammonium bromide was evaluated in ligation-induced infarcted and reperfused rats as follows. One of two groups of rats was infused intravenously with a solution of test compound in saline at a rate of 2.3 ml/h (10 mg/kg/h). The control group was infused with saline at the same rate. After 10 min of drug infusion, coronary arteries were ligated surgically for 60 min, ligation was loosened to allow reperfusion for 30 min. The ligation was retied and a dye (Evans Blue) was injected. The animals were sacrificed and the heart ventricles were removed and weighed. The unstained tissue was dissected and weighed; this represents the "area at risk", i.e. the area that was deprived of blood supply by ligation. To determine the infarcted area, the tissue was incubated with 2,3,5-triphenyltetrazolium chloride. Infarcted tissue became light colored and could be dissected and weighed. Thus, for each rat that survived the ligation a measurement of "area at risk" and of "infarcted area" was obtained and the ratio was calculated as given in Tables II and III.

The nature of data set [3]: Affinity for cardiac tissue: radioactivity in heart and blood after intravenous 14C-labelled compound. It is filed as in vivo. Further details: ng equiv/g heart: unit not given here. The note with it: rats, 0.91 mg base/kg intravenous. The protocol: Following the procedure described in Example 1, but using ¹⁴C-methyl p-toluenesulfonate in place of "cold material", ¹⁴C-labelled 2-(3,4-dihydro-2,5,7,8-tetramethyl-6-methylcarbonyloxy-2H-1-benzopyranan-2-yl)ethyl-N,N,N-tri-¹⁴C-methylammonium p-toluenesulfonate was synthesized. The preparation was diluted with "cold material" to 11.74 µCi/mg base.
24 rats were given 0.91 mg base/kg by intravenous route (by canula into the jugular vein). The animals were sacrificed in groups of 3 at the time periods indicated in Table I. Immediately before sacrifice a 0.5 ml blood sample was taken from an indwelling catheter in the carotid artery. The hearts were removed, blotted and weighed. The samples of tissue and blood were solubiized with Luma Solve (a quaternary ammonium hydroxide preparation) and radioactivity was determined in a scintillation counter.

[4] abbreviates: treated group, 10 mg/kg/h intravenous infusion, individual rats No. 1-10, 10 mg/kg.

Several values for one entry are separate records, joined by “and”; a condition that tells them apart may be missing. Equal values may be shown once.

With `Cc1c(C)c2c(c(C)c1O)CCC(C)(C(=O)O)O2` (stereo not drawn) [3,4-dihydro-6-hydroxy-2,5,7,8-tetramethyl-2H-1-benzopyran-2-carboxylic acid], the IC50 in data set [1] was found to be 105 ± 8 µM.
Consider `Cc1c(C)c2c(c(C)c1O)CCC(C)(CC[N+](C)(C)C)O2` (stereo not drawn) [Example 1, 2-(3,4-Dihydro-6-hydroxy-2,5,7,8-tetramethyl-2H-1-benzo-pyran-2-yl)ethyl-N,N,N-trimethylammonium bromide], for which the IC50 in data set [1] came to 138 ± 14 µM.
In the case of `CC(=O)Oc1c(C)c(C)c2c(c1C)CCC(C)(CC[N+](C)(C)C)O2.[Br-]` (stereo not drawn) [Example 2, 2-(3,4-Dihydro-2,5,7,8-tetramethyl-6-methylcarbonyloxy-2H-1-benzopyran-2-yl)ethyl-N,N,N-trimethylammonium bromide], in data set [2] (treated (10 mg/kg/h) versus saline control, statistically significant (ANOVA) at p = 0.02), the reduction of infarction was determined as 42.7%. The “Ratio % (infarcted tissue / tissue at risk), average” value in data set [2] (treated group, 10 mg/kg/h intravenous infusion, average of 10 rats, control group 83.31, 10 mg/kg) is 47.8% and 47.75%. Also, in data set [2] (setting [4]), the “Infarcted tissue,mg” value is 23 mg and 27 mg and 299 mg and 39 mg and 33 mg and 247 mg and 193 mg and 134 mg and 123 mg and 157 mg; the “Ratio % (infarcted tissue / tissue at risk)” value was 45.2% and 9.4% and 97.5% and 15.5% and 18.9% and 64.8% and 62.1% and 64.5% and 31.2% and 68.4%.
Regarding `CC(=O)Oc1c(C)c(C)c2c(c1C)CCC(C)(CC[N+](C)(C)C)O2.Cc1ccc(S(=O)(=O)[O-])cc1` (stereo not drawn) [Example 9, 2-(3,4-Dihydro-2,5,7,8-tetramethyl-6-methylcarbonyloxy-2H-1-benzopyran-2-yl)ethyl-N,N,N-trimethylammonium p-toluenesulfonate], the Ratio heart/blood is 3.05 ± 1.46 in data set [3] (5 min after administration); 6.90 ± 8.34 in data set [3] (15 min after administration); 17.33 ± 5.42 in data set [3] (30 min after administration); 20.09 ± 2.54 in data set [3] (1 hour after administration); 21.90 ± 3.56 in data set [3] (2 hours after administration); 27.15 and 27.15 ± 4.30 in data set [3] (4 hours after administration (maximum), listed as 2-(3,4-dihydro-2,5,7,8-tetramethyl-6-methylcarbonyloxy-2H-1-benzopyranan-2-yl)et, p-toluenesulfonate). Further, the Ratio heart/blood in data set [3] (6 hours after administration) is 18.62 ± 2.77; in data set [3] (8 hours after administration), 15.12 ± 2.69. The ng equiv/g heart in data set [3] (5 min after administration) was 1.591 ± 0.22; in data set [3] (15 min after administration), 1.728 ± 0.422; in data set [3] (30 min after administration) it was 1.905 ± 0.278; in data set [3] (1 hour after administration) it was 2.092 ± 0.406; in data set [3] (2 hours after administration), 1.395 ± 0.042; in data set [3] (4 hours after administration), 1.253 ± 0.248. Also, the values for the ng equiv/g heart in data set [3] (6 hours after administration) and in data set [3] (8 hours after administration) were 0.863 ± 0.067 and 0.652 ± 0.116, respectively. Besides, the ng equiv/ml blood in data set [3] (5 min after administration) was 0.434 ± 0.351 ng equiv/ml blood; in data set [3] (15 min after administration), 0.590 ± 0.295 ng equiv/ml blood; in data set [3] (30 min after administration), 0.124 ± 0.032 ng equiv/ml blood; in data set [3] (1 hour after administration), 0.096 ± 0.008 ng equiv/ml blood; in data set [3] (2 hours after administration) it was 0.086 ± 0.041 ng equiv/ml blood; in data set [3] (4 hours after administration) it was 0.054 ± 0.013 ng equiv/ml blood. In addition, the ng equiv/ml blood in data set [3] (6 hours after administration) is 0.048 ± 0.007 ng equiv/ml blood; in data set [3] (8 hours after administration), 0.048 ± 0.012 ng equiv/ml blood. Further, the “concentration of drug in heart tissue” value in data set [3] (after 8 h) is 0.65 µg equiv/g. In addition, the “affinity for heart tissue” value in data set [3] (conclusion in words) is reported as “marked affinity for heart tissue”.
On to `CC(C)(S)[C@@H](N)C(=O)O` [d,1-penicillamine], for which the IC50 in data set [1] worked out at 73 µM.

The record behind these values is patent publication EP0369083A1, “Cardioprotective tocopherol analogs” (MERRELL DOW PHARMACEUTICALS INC., priority 1988, dated 1990).
